Counter-ions that a name gives are not always drawn.
Experiments:
[1] = target: CDK2/cyclin A (Homo sapiens, UniProt P24941); assay: CDK2 inhibition, Kinase-Glo Luminescent Kinase Assay; assay type: biochemical; settings: for IC50: geometric means of n ⩾ 3 experiments, 10 µM ATP, read-out: IC50 against CDK2; for inhibition at 0.5 µM: read-out: inhibition rate (%) @0.5 μM against CDK2, compound at 0.5 μM; for CDK2 inhibitory activity (in words): screened at 0.5 μM
Method: The IC50 values were calculated using Prism GraphPad software.

Row | IC50 [1] [nM] | melting point | inhibition at 0.5 µM [1] [%] | CDK2 inhibitory activity (in words) [1] | Molecule
1 | 310 ± 10 |  |  |  | O=[N+]([O-])c1cccc(Nc2nc(-c3ccccc3)c3nc[nH]c3n2)c1 [Compound 5a, N-(3-nitrophenyl)-6-phenyl-9H-purin-2-amine]
2 |  | > 300 °C | 3 | weak activity | O=[N+]([O-])c1cccc(Nc2nc(-c3cccc4ccccc34)c3nc[nH]c3n2)c1 [Compound 5b, 6-(naphthalen-1-yl)-N-(3-nitrophenyl)-9H-purin-2-amine]
3 |  | 236 °C (dec.) | 37 |  | Cl.O=[N+]([O-])c1cccc(Nc2nc(-c3ccc[nH]3)c3nc[nH]c3n2)c1 [Compound 5c, N-(3-nitrophenyl)-6-(1H-pyrrol-2-yl)-9H-purin-2-amine hydrochloride]
4 |  | 260 °C (dec.) | 7 | weak activity | O=[N+]([O-])c1cccc(Nc2nc(-c3ccc4c(c3)OCO4)c3nc[nH]c3n2)c1 [Compound 5d, 6-(benzo[d][1,3]dioxol-5-yl)-N-(3-nitrophenyl)-9H-purin-2-amine]
5 |  | > 280 °C |  | inactive | O=[N+]([O-])c1cccc(Nc2nc(-c3ccsc3)c3nc[nH]c3n2)c1 [Compound 5e, N-(3-nitrophenyl)-6-(thiophen-3-yl)-9H-purin-2-amine]
6 | 150 ± 10 |  |  |  | O=C(O)c1cccc(-c2nc(Nc3cccc([N+](=O)[O-])c3)nc3[nH]cnc23)c1 [Compound 5g, 3-(2-((3-nitrophenyl)amino)-9H-purin-6-yl)benzoic acid]
7 |  | 257 °C | 11 | abolished CDK2 inhibitory activity | COC(=O)c1cccc(-c2nc(Nc3cccc([N+](=O)[O-])c3)nc3[nH]cnc23)c1 [Compound 5h, Methyl 3-(2-((3-nitrophenyl)amino)-9H-purin-6-yl)benzoate]
8 |  |  |  | abolished CDK2 inhibitory activity | O=[N+]([O-])c1cccc(Nc2nc(-c3ccc(F)cc3)c3nc[nH]c3n2)c1 [Compound 5i, 6-(4-fluorophenyl)-N-(3-nitrophenyl)-9H-purin-2-amine]
9 |  | > 300 °C | 7 | low activity | O=C(O)c1ccc(-c2nc(Nc3cccc([N+](=O)[O-])c3)nc3[nH]cnc23)cc1 [Compound 5j, 4-(2-((3-nitrophenyl)amino)-9H-purin-6-yl)benzoic acid]
10 |  | 212 to 214 °C | 3 | abolished CDK2 inhibitory activity | COC(=O)c1ccc(-c2nc(Nc3cccc([N+](=O)[O-])c3)nc3[nH]cnc23)cc1 [Compound 5k, Methyl 4-(2-((3-nitrophenyl)amino)-9H-purin-6-yl)benzoate]
11 |  | > 300 °C | 40 |  | Cl.Nc1ccc(-c2nc(Nc3cccc([N+](=O)[O-])c3)nc3[nH]cnc23)cc1 [Compound 11b, 6-(4-aminophenyl)-N-(3-nitrophenyl)-9H-purin-2-amine hydrochloride]
12 | 230 ± 10 | > 300 °C |  |  | Cl.NCc1ccc(-c2nc(Nc3cccc([N+](=O)[O-])c3)nc3[nH]cnc23)cc1 [Compound 11d, 6-(4-(aminomethyl)phenyl)-N-(3-nitrophenyl)-9H-purin-2-amine hydrochloride]
13 |  | > 230 °C | 35 |  | Cl.NCCc1cccc(-c2nc(Nc3cccc([N+](=O)[O-])c3)nc3[nH]cnc23)c1 [Compound 11e, 6-(3-(2-aminoethyl)phenyl)-N-(3-nitrophenyl)-9H-purin-2-amine hydrochloride]
14 |  | 203 to 205 °C | 35 |  | Cl.NCc1cccc(-c2nc(Nc3ccccc3)nc3[nH]cnc23)c1 [Compound 11f, 6-(3-(aminomethyl)phenyl)-N-phenyl-9H-purin-2-amine hydrochloride]
15 | 130 ± 20 | 200 to 202 °C |  |  | Cl.NCc1ccc(-c2nc(Nc3ccccc3)nc3[nH]cnc23)cc1 [Compound 11g, 6-(4-(aminomethyl)phenyl)-N-phenyl-9H-purin-2-amine hydrochloride]
16 |  | 210 °C (dec.) | 13 |  | Cl.NCc1cccc(-c2nc(Nc3ccc(-c4ccccc4)cc3)nc3[nH]cnc23)c1 [Compound 11h, N-([1,1′-biphenyl]-4-yl)-6-(3-(aminomethyl)phenyl)-9H-purin-2-amine hydrochloride]
17 | 280 ± 20 | > 300 °C |  |  | Cc1ccc(Nc2nc(-c3cccc(CN)c3)c3nc[nH]c3n2)cc1.Cl [Compound 11i, 6-(3-(aminomethyl)phenyl)-N-(p-tolyl)-9H-purin-2-amine hydrochloride]
18 |  |  | 28 |  | CC(C)(C)c1ccc(Nc2nc(-c3cccc(CN)c3)c3nc[nH]c3n2)cc1 [Compound 11j, 6-(3-(aminomethyl)phenyl)-N-(4-(tert-butyl)phenyl)-9H-purin-2-amine hydrochloride]
19 |  | > 300 °C | 26 |  | Cl.NCc1cccc(-c2nc(Nc3ccc(N4CCNCC4)cc3)nc3[nH]cnc23)c1 [Compound 11k, 6-(3-(aminomethyl)phenyl)-N-(4-(piperazin-1-yl)phenyl)-9H-purin-2-amine hydrochloride]
20 |  | > 300 °C | 33 |  | Cl.Cl.NCc1cccc(-c2nc(Nc3cccc(N)c3)nc3[nH]cnc23)c1 [Compound 11m, N ^ 1-(6-(3-(aminomethyl)phenyl)-9H-purin-2-yl)benzene-1,3-diamine dihydrochloride]
21 | 320 ± 60 | > 300 °C |  |  | Cl.NCc1cccc(-c2nc(Nc3ccc(F)cc3)nc3[nH]cnc23)c1 [Compound 11n, 6-(3-(aminomethyl)phenyl)-N-(4-fluorophenyl)-9H-purin-2-amine hydrochloride]
22 | 240 ± 10 |  |  |  | NCc1ccc(-c2nc(Nc3ccc(F)cc3)nc3[nH]cnc23)cc1 [Compound 11o, 6-(4-(aminomethyl)phenyl)-N-(4-fluorophenyl)-9H-purin-2-amine hydrochloride]
23 | 180 ± 20 | > 300 °C |  |  | CN(C)S(=O)(=O)c1ccc(Nc2nc(-c3cccc(CN)c3)c3nc[nH]c3n2)cc1.Cl [Compound 11q, 4-((6-(3-(aminomethyl)phenyl)-9H-purin-2-yl)amino)-N,N-dimethylbenzene sulfonamide hydrochloride]

Row | Molecule | IC50 [1] [nM] | melting point | inhibition at 0.5 µM [1] [%] | CDK2 inhibitory activity (in words) [1]
24 | 6-(3-(aminomethyl)phenyl)-N-(4-(piperazin-1-yl)phenyl)-9H-purin-2-amine dihydrochloride [Compound 11r] | 190 ± 10 |  |  | 
25 | O=[N+]([O-])c1cccc(Nc2nc(-c3cccc([N+](=O)[O-])c3)c3nc[nH]c3n2)c1 [Compound 5f, N,6-bis(3-nitrophenyl)-9H-purin-2-amine] |  | > 300 °C |  | abolished CDK2 inhibitory activity

From publication PMC9110766, “Structure-Based Design of 2-Aminopurine Derivatives as CDK2 Inhibitors for Triple-Negative Breast Cancer” (Frontiers in Pharmacology, 2022)
